Data taken from US20160081986A1, “LONG-ACTING SPIRO-ISOXAZOLINE ANTIPARASITIC COMPOSITIONS” (priority 2013, published 2016).

Assays:
[1] = test system: Rhipicephalus sanguineus ticks; assay: Tick infested hair samples from treated dogs (contact activity); assay type: in vivo; settings: for # Dead Ticks (mean): hair taken 26 days post dose, ten ticks per vial; for % Reduction: vs control
Experimental: (§1) The study assessed the efficacy of a 25 mg/kg (0.1 mL/kg) topical dose of Compound 1 versus control against fleas (Ctenocephalides felis) and ticks (Ixodes scapularis) on beagle dogs. The formulation was butyl digol:dimethyl isosorbide (90:10 v/v %), selected as it had excellent solubility for Compound 1. Eight male and eight female dogs were acclimated to the testing facility. On Day 0 of the study, each animal received a topical dose of Compound 1 or control (formulation without Compound 1). On Days 56, 89, 117, 145, and 173, animals were artificially infested with about 100 adult unfed fleas. Flea counts were conducted 24 hours post infestation. At each count, all fleas were removed from the dogs. On Days 55, 88, 116, 144, and 172, all dogs were infested with about 50 viable, unfed adult ticks. Tick counts were conducted 48 hours post infestation. At each count, all ticks were removed from the dogs. Further, some hair was removed from the left or right shoulder from three individual dogs from each treatment group 26 days post dose. The hair from each dog was equally divided and placed into two separate 20 mL scintillation vials. Ten female Rhipicephalus sanguineus and ten female Ixodes scapularis ticks were placed in the vials with the hair. Ticks were evaluated for viability at 2-4 hours, 24 hours, 48 hours and 72 hours post vial infestation.

Ixodes scapularis ticks = assay: as above; assay type: in vivo; settings: for # Dead Ticks (mean): hair taken 26 days post dose, ten ticks per vial; for % Reduction: vs control
Experimental: as §1

[2] = Franz diffusion cell screening (FDCS), flux and Kp; assay type: in vitro ADME, canine
Experimental: FDCS yields flux rates and permeation constants for the formulations through a fixed membrane (e.g., canine-, feline-, and bovine-skin).
Canine skin, stored at −20° C. for a maximum of 1 year, was thawed, trimmed, and dermatomed to give a thin layer of skin about 0.8-1.5 mm in thickness. The skin was mounted onto the Franz diffusion cell and equilibrated with the receptor media, 50:50 v/v % EtOH:Milli-Q water, for 2 to 4 hours. The receptor media was selected to provide sink conditions for Compound 1. Once equilibrated, test formulations were applied to the donor side, generally 50 μL/cm^2. Samples were generally obtained at 12, 24, 30, 36, 42, and 48 hours, but can be obtained at any six timepoints out to 72 hours. A control vehicle of with Compound 1 (250 mg/mL) in butyl digol:dimethyl isosorbide (90:10 v/v %) was included in every FDCS study.
Post experiment samples were stored at 4° C. until analysed for Compound 1 concentration by LCMS. Cumulative amount of Compound 1 in ng/cm^2 was calculated and plotted versus time. The gradient of straight line portion of the graph yields the flux value (ng/cm^2/hr) for a given formulation, FIG. 1. The flux can be divided by the applied concentration of Compound 1 to yield the permeability constant Kp (cm/hr)—often converted to a log 10 scale.

[3] = test system: ticks (Ixodes scapularis); assay: 6 Month PKPD study: efficacy against ticks on beagle dogs; assay type: in vivo; settings: for Geometric mean live ticks (LT): dogs, 25 mg/kg topical on Day 0; for % Reduction live ticks: vs control
Experimental: (§2) The spiro-azetidine isoxazoline, (S)-1-(5′-(5-(3,5-dichloro-4-fluorophenyl)-5-(trifluoromethyl)-4,5-dihydroisoxazol-3-yl)-3′H-spiro[azetidine-3,1′-isobenzofuran]-1-yl)-2-(methylsulfonyl)ethanone (Compound 1) was used to conduct an in-vivo long-acting efficacy study.
as §1

[4] = Solubility of Compound 1 in the formulation; assay type: physicochemical; settings: butyl digol:dimethyl isosorbide (90:10 v/v %)
Experimental: as §1

[5] = test system: fleas (Ctenocephalides felis); assay: 6 Month PKPD study: efficacy against fleas on beagle dogs; assay type: in vivo; settings: for Geometric mean live fleas (LF): dogs, 25 mg/kg topical on Day 0; for % Reduction live fleas: vs control
Experimental: as §2, §1

[6] = 25 mg/kg topical, butyl digol and dimethyl isosorbide, for 5 months

Structure (SMILES): CS(=O)(=O)CC(=O)N1CC2(C1)OCc1cc(C3=NO[C@@](c4cc(Cl)c(F)c(Cl)c4)(C(F)(F)F)C3)ccc12 [Compound 1, (S)-1-(5′-(5-(3,5-dichloro-4-fluorophenyl)-5-(trifluoromethyl)-4,5-dihydroisoxazol-3-yl)-3′H-spiro[azetidine-3,1′-isobenzofuran]-1-yl)-2-(methylsulfonyl)ethanone]
- # Dead Ticks (mean) ([1]; 2-4 hours post infestation): 0
- # Dead Ticks (mean) ([1]; 24 hours post infestation): 9.0
- # Dead Ticks (mean) ([1]; 48 hours post infestation): 9.3
- # Dead Ticks (mean) ([1]; 72 hours post infestation): 9.7
- % Reduction ([1]; 2-4 hours post infestation): 0.0%
- % Reduction ([1]; 24 hours post infestation): 100.0%
- % Reduction ([1]; 48 hours post infestation): 100.0%
- % Reduction ([1]; 72 hours post infestation): 100.0%
- duration of contact activity against ticks following the topical dose (Ixodes scapularis ticks; hair samples, I. scapularis and R. sanguineus): at least 26 days
- # Dead Ticks (mean) (Ixodes scapularis ticks; 2-4 hours post infestation): 0
- # Dead Ticks (mean) (Ixodes scapularis ticks; 24 hours post infestation): 3.7
- # Dead Ticks (mean) (Ixodes scapularis ticks; 48 hours post infestation): 7.3
- # Dead Ticks (mean) (Ixodes scapularis ticks; 72 hours post infestation): 9.3
- % Reduction (Ixodes scapularis ticks; 2-4 hours post infestation): 0.0%
- % Reduction (Ixodes scapularis ticks; 24 hours post infestation): 72.7%
- % Reduction (Ixodes scapularis ticks; 48 hours post infestation): 86.4%
- % Reduction (Ixodes scapularis ticks; 72 hours post infestation): 85.7%
- flux rates and permeation constants with increasing dimethyl isosorbide (FIG. 3) ([2]; 250 mg/mL, butyl digol:dimethyl isosorbide 90:10, 80:20, 60:40 v/v %): small reduction
- flux rates and permeation constants versus oleic acid level (FIG. 4) ([2]; 250 mg/mL, butyl digol:oleic acid 95:5, 90:10, 80:20 v/v %): increase with increasing oleic acid levels
- flux versus drug load (FIG. 2) ([2]; 50, 150 and 250 mg/mL in butyl digol:dimethyl isosorbide 90:10 v/v %): increased drug load correlates to increased flux
- control of ticks (reduction in geometric mean counts vs placebo) [3, 6]: > 95%
- Geometric mean live ticks (LT) ([3]; 57 days): 0.0
- Geometric mean live ticks (LT) ([3]; 90 days): 0.0
- Geometric mean live ticks (LT) ([3]; 118 days): 0.1
- Geometric mean live ticks (LT) ([3]; 146 days): 0.3
- Geometric mean live ticks (LT) ([3]; 174 days): 4.5
- % Reduction live ticks ([3]; 25 mg/kg topical, 57 days): 100%
- % Reduction live ticks ([3]; 25 mg/kg topical, 90 days): 100%
- % Reduction live ticks ([3]; 25 mg/kg topical, 118 days): 99.1%
- % Reduction live ticks ([3]; 25 mg/kg topical, 146 days): 97.3%
- % Reduction live ticks ([3]; 25 mg/kg topical, 174 days): 64.3%
- solubility for Compound 1 [4]: excellent
- control of fleas (reduction in geometric mean counts vs placebo) [5, 6]: > 95%
- Geometric mean live fleas (LF) ([5]; 57 days): 0.2
- Geometric mean live fleas (LF) ([5]; 90 days): 0.0
- Geometric mean live fleas (LF) ([5]; 118 days): 0.9
- Geometric mean live fleas (LF) ([5]; 146 days): 0.8
- Geometric mean live fleas (LF) ([5]; 174 days): 13
- % Reduction live fleas ([5]; 25 mg/kg topical, 57 days): 98.6%
- % Reduction live fleas ([5]; 25 mg/kg topical, 90 days): 100%
- % Reduction live fleas ([5]; 25 mg/kg topical, 118 days): 98.6%
- % Reduction live fleas ([5]; 25 mg/kg topical, 146 days): 98.3%
- % Reduction live fleas ([5]; 25 mg/kg topical, 174 days): 74.3%
